Among the data in patent US20250186437A1, “CARBOLINE COMPOUNDS AND USE THEREOF” (PTC Therapeutics, Inc., priority 2021, published 2025) are IC50 values, retold here.

This test deals with MOLM-13 cells. In words: MOLM-13 Cell Proliferation Assay (indicator of DHODH inhibition). In kind it is cell-based. The following applies: Homo sapiens, 72 Hours of culture, CellTiter-Glo, no uridine. Here is the method:
The following assay was conducted to measure proliferation of MOLM-13 cells in the presence of each compound studied. This assay was included as an indicator of DHODH inhibition, as growth of MOLM-13 cells is known to depend on synthesis of pyrimidines using the de novo pathway, which can be blocked by inhibition of DHODH. • 1. MOLM-13 cells were cultured in RPMI 1640 medium+10% Fetal Bovine Serum (FBS). Only low passage cells (<20) were used for the compound tests • 2. On day 1, Log-phase growing Molm-13 Cells were counted and diluted to 10^5 cells/mL in RPMI 1640 medium+10% FBS • 3. 100 μL of diluted MOLM-13 cells in 96 well white plates were seeded, for a final density of 10^4 cells/well. • 4. 0.5 μL of pre-diluted 200× compounds or DMSO control was added to each well. The final DMSO concentration was 0.5%. • 5. After 72 Hours of culture at 37° C., 5% CO2, the plates were taken out and cooled to RT, then 50 μL CellTiter-Glo® (Promega) was added, and the composition was mixed at RT for 10 minutes. • 6. The plates were then read by ViewLux (Speed-fast, Gain-High, Bining-1X, 5 seconds).
For orientation: Cellular ATP, detected with luciferase, serves as a proxy for viable cell number.

On to `CCCCOc1nc(C)nc(N2CCc3c([nH]c4ccc(Cl)cc34)C2c2cnc(N3CCOCC3)nc2)n1` (stereo not drawn) [Compound 318, 2-(4-butoxy-6-methyl-1,3,5-triazin-2-yl)-6-chloro-1-[2-(morpholin-4-yl)pyrimidin-5-yl]-2,3,4,9-tetrahydro-1H-pyrido[3,4-b]indole], for which the half-inhibitory concentration (IC50) stood at 4.3 nM. In other words, the single-digit nanomolar range.
On to `CN(C)c1ccc(C2c3[nH]c4ccc(Cl)c(F)c4c3CCN2c2nccc(C(F)(F)F)n2)cn1` (stereo not drawn) [Compound 177, 5-{6-chloro-5-fluoro-2-[4-(trifluoromethyl)pyrimidin-2-yl]-2,3,4,9-tetrahydro-1H-pyrido[3,4-b]indol-1-yl}-N,N-dimethylpyridin-2-amine], for which the IC50 is 3.9 nM. This IC50 and that of the compound before are within 1.5-fold of each other.
`Cc1ccnc(N2CCc3c([nH]c4cc(F)c(Cl)cc34)C2c2cccc(F)c2F)n1` (stereo not drawn) [Compound 63, 6-chloro-1-(2,3-difluorophenyl)-7-fluoro-2-(4-methylpyrimidin-2-yl)-2,3,4,9-tetrahydro-1H-pyrido[3,4-b]indole] gave an IC50 of 13.2 nM. This IC50 lies about 3.4-fold higher than the previous one.
To `CN(C)c1ccc(C2c3[nH]c4cc(F)c(Cl)cc4c3CCN2c2nccc(C(F)(F)F)n2)cc1` (stereo not drawn) [Compound 170, 4-{6-chloro-7-fluoro-2-[4-(trifluoromethyl)pyrimidin-2-yl]-2,3,4,9-tetrahydro-1H-pyrido[3,4-b]indol-1-yl}-N,N-dimethylaniline] belongs 10.6 nM; to `Cc1cc(C#N)nc(N2CCc3c([nH]c4cc(F)c(Cl)cc34)C2c2cccc(F)c2F)n1` (stereo not drawn) [Compound 152, 2-[6-chloro-1-(2,3-difluorophenyl)-7-fluoro-1,3,4,9-tetrahydro-2H-pyrido[3,4-b]indol-2-yl]-6-methylpyrimidine-4-carbonitrile], 3.7 nM.
To `Fc1c(Cl)ccc2[nH]c3c(c12)CCN(c1nccc(C(F)(F)F)n1)C3c1cnc(-n2ccnc2)nc1` (stereo not drawn) [Compound 193, 6-chloro-5-fluoro-1-[2-(1H-imidazol-1-yl)pyrimidin-5-yl]-2-[4-(trifluoromethyl)pyrimidin-2-yl]-2,3,4,9-tetrahydro-1H-pyrido[3,4-b]indole] belongs 3.8 nM; to `FC(F)(F)c1cnc(N2CCc3c([nH]c4ccc(Cl)cc34)C2c2cnc(N3CCOCC3)nc2)nn1` (stereo not drawn) [Compound 458, 6-chloro-1-[2-(morpholin-4-yl)pyrimidin-5-yl]-2-[6-(trifluoromethyl)-1,2,4-triazin-3-yl]-2,3,4,9-tetrahydro-1H-pyrido[3,4-b]indole], 4.6 nM; to `Cc1ccc(C2c3[nH]c4cc(F)c(Cl)cc4c3CCN2c2nc(C)c(C)c(C)n2)c(F)c1F` (stereo not drawn) [Compound 169, 6-chloro-1-(2,3-difluoro-4-methylphenyl)-7-fluoro-2-(4,5,6-trimethylpyrimidin-2-yl)-2,3,4,9-tetrahydro-1H-pyrido[3,4-b]indole], 2.2 nM.
Compound `Cc1nc(N2CCc3c([nH]c4ccc(Cl)c(F)c34)C2c2ccc(/C=C/CCO)cc2)ncc1F` (stereo not drawn) [Compound 241, (3E)-4-{4-[6-chloro-5-fluoro-2-(5-fluoro-4-methylpyrimidin-2-yl)-2,3,4,9-tetrahydro-1H-pyrido[3,4-b]indol-1-yl]phenyl}but-3-en-1-ol] showed an IC50 of 3.4 nM. This IC50 lies about 1.5-fold higher than the previous one.
To `Cc1cc(C)nc(N2CCc3c([nH]c4ccc(Cl)cc34)C2c2cnc(N3CCOCC3)nc2)n1` (stereo not drawn) [Compound 308, 6-chloro-2-(4,6-dimethylpyrimidin-2-yl)-1-[2-(morpholin-4-yl)pyrimidin-5-yl]-2,3,4,9-tetrahydro-1H-pyrido[3,4-b]indole] belongs 3.8 nM; to `Cc1nc(C)nc(N2CCc3c([nH]c4ccc(Br)cc34)C2c2cnc(N3CCOCC3)nc2)n1` (stereo not drawn) [Compound 299, 6-bromo-2-(4,6-dimethyl-1,3,5-triazin-2-yl)-1-[2-(morpholin-4-yl)pyrimidin-5-yl]-2,3,4,9-tetrahydro-1H-pyrido[3,4-b]indole], 6.8 nM; to `Fc1ccc(C2c3[nH]c4cc(F)c(Cl)cc4c3CCN2c2ncc(F)cn2)cc1` (stereo not drawn) [Compound 5, 6-chloro-7-fluoro-1-(4-fluorophenyl)-2-(5-fluoropyrimidin-2-yl)-2,3,4,9-tetrahydro-1H-pyrido[3,4-b]indole], 67.9 nM.
To `Cc1ccn(-c2ccc3[nH]c4c(c3c2)CCN(c2nc(C(F)(F)F)nc(C(F)(F)F)n2)[C@H]4c2ccc(C)c(F)c2F)n1` [Compound 530, (1S)-2-[4,6-bis(trifluoromethyl)-1,3,5-triazin-2-yl]-1-(2,3-difluoro-4-methylphenyl)-6-(3-methyl-1H-pyrazol-1-yl)-2,3,4,9-tetrahydro-1H-pyrido[3,4-b]indole] belongs 10.9 nM; to `Cc1ccc(C2c3[nH]c4ccc(Cl)cc4c3CCN2c2ncc(F)c(C)n2)c(F)c1F` (stereo not drawn) [Compound 235, 6-chloro-1-(2,3-difluoro-4-methylphenyl)-2-(5-fluoro-4-methylpyrimidin-2-yl)-2,3,4,9-tetrahydro-1H-pyrido[3,4-b]indole], 1.5 nM.
To `Cc1ccc([C@H]2c3[nH]c4ccc(Cl)cc4c3CCN2c2ncc(F)c(C)n2)cc1` [Compound 394, (1S)-6-chloro-2-(5-fluoro-4-methylpyrimidin-2-yl)-1-(4-methylphenyl)-2,3,4,9-tetrahydro-1H-pyrido[3,4-b]indole] belongs 4.9 nM.
Compound `Cc1cc(C)nc(N2CCc3c([nH]c4cc(F)c(Cl)cc34)C2c2cccc(F)c2F)n1` (stereo not drawn) [Compound 129, 6-chloro-1-(2,3-difluorophenyl)-2-(4,6-dimethylpyrimidin-2-yl)-7-fluoro-2,3,4,9-tetrahydro-1H-pyrido[3,4-b]indole] showed an IC50 of 7.6 nM.
To `Cc1ccc([C@H]2c3[nH]c4ccc(Cl)cc4c3CCN2c2ncc(-c3ccccc3)cn2)c(F)c1F` [Compound 471, (1S)-6-chloro-1-(2,3-difluoro-4-methylphenyl)-2-(5-phenylpyrimidin-2-yl)-2,3,4,9-tetrahydro-1H-pyrido[3,4-b]indole] belongs 2.5 nM; to `Clc1ccc2[nH]c3c(c2c1)CCN(c1ncc(Br)cn1)[C@H]3c1cnc(N2CCOCC2)nc1` [Compound 470, (1S)-2-(5-bromopyrimidin-2-yl)-6-chloro-1-[2-(morpholin-4-yl)pyrimidin-5-yl]-2,3,4,9-tetrahydro-1H-pyrido[3,4-b]indole], 3.1 nM.
`CN(C)c1ncc(C2c3[nH]c4ccc(Cl)c(F)c4c3CCN2c2nccc(C(F)(F)F)n2)cc1F` (stereo not drawn) [Compound 160, 5-{6-chloro-5-fluoro-2-[4-(trifluoromethyl)pyrimidin-2-yl]-2,3,4,9-tetrahydro-1H-pyrido[3,4-b]indol-1-yl}-3-fluoro-N,N-dimethylpyridin-2-amine] registered a half-maximal inhibitory concentration (IC50) of 3.5 nM. The IC50 values of the last two compounds are within 1.5-fold of each other.
Compound `COCCOc1ncc([C@H]2c3[nH]c4ccc(Cl)cc4c3CCN2c2nc(C(F)(F)F)nc(C(F)(F)F)n2)cn1` [Compound 534, (1S)-2-[4,6-bis(trifluoromethyl)-1,3,5-triazin-2-yl]-6-chloro-1-[2-(2-methoxyethoxy)pyrimidin-5-yl]-2,3,4,9-tetrahydro-1H-pyrido[3,4-b]indole] gave a 50% inhibitory concentration (IC50) of 0.8 nM. This IC50 is about 4.4-fold lower than that of the compound before.
As for `Cc1cc(O)c2[nH]c3c(c2c1)CCN(c1nccc(C(F)(F)F)n1)C3c1ccc(C)c(F)c1F` (stereo not drawn) [Compound 276, 1-(2,3-difluoro-4-methylphenyl)-6-methyl-2-[4-(trifluoromethyl)pyrimidin-2-yl]-2,3,4,9-tetrahydro-1H-pyrido[3,4-b]indol-8-ol], the figure is 0.6 nM; as for `Fc1c(Cl)ccc2[nH]c3c(c12)CCN(c1nccc(C(F)(F)F)n1)[C@@H]3c1ccc(Cl)cc1` [Compound 181, (1R)-6-chloro-1-(4-chlorophenyl)-5-fluoro-2-[4-(trifluoromethyl)pyrimidin-2-yl]-2,3,4,9-tetrahydro-1H-pyrido[3,4-b]indole], 177 nM.
As for `Cc1ccc([C@H]2c3[nH]c4ccc(Cl)cc4c3CCN2c2nc(N(C)C)nc(C(F)(F)F)n2)cc1` [Compound 441, 4-[(1S)-6-chloro-1-(4-methylphenyl)-1,3,4,9-tetrahydro-2H-pyrido[3,4-b]indol-2-yl]-N,N-dimethyl-6-(trifluoromethyl)-1,3,5-triazin-2-amine], the figure is 5.7 nM; as for `Cc1ccc(C2c3[nH]c4cc(F)c(Cl)cc4c3CCN2c2nccc(C)n2)cc1` (stereo not drawn) [Compound 42, 6-chloro-7-fluoro-1-(4-methylphenyl)-2-(4-methylpyrimidin-2-yl)-2,3,4,9-tetrahydro-1H-pyrido[3,4-b]indole], 20.3 nM; as for `Fc1ccc(C2c3[nH]c4ccc(F)c(F)c4c3CCN2c2ncc(F)cn2)cc1` (stereo not drawn) [Compound 83, 5,6-difluoro-1-(4-fluorophenyl)-2-(5-fluoropyrimidin-2-yl)-2,3,4,9-tetrahydro-1H-pyrido[3,4-b]indole], 259 nM.
`Cc1ccc([C@H]2c3[nH]c4ccc(Cl)cc4c3CCN2c2nc(C(F)(F)F)nc(C(Cl)(Cl)Cl)n2)c(F)c1F` [Compound 505, (1S)-6-chloro-1-(2,3-difluoro-4-methylphenyl)-2-[4-(trichloromethyl)-6-(trifluoromethyl)-1,3,5-triazin-2-yl]-2,3,4,9-tetrahydro-1H-pyrido[3,4-b]indole]: the IC50 stood at 1.5 nM.
Compound `Cc1nc(N2CCc3c([nH]c4ccc(Cl)c(F)c34)C2c2ccc(Cl)cc2)ncc1F` (stereo not drawn) [Compound 70, 6-chloro-1-(4-chlorophenyl)-5-fluoro-2-(5-fluoro-4-methylpyrimidin-2-yl)-2,3,4,9-tetrahydro-1H-pyrido[3,4-b]indole] registered an IC50 of 6.7 nM.

Usually IC50 stands for the point on the concentration scale where inhibition reaches its midpoint. A low value points to greater potency.
